Active and inactive are the calls of the source. No cut-off for these calls is given here. Square brackets hold non-standard residues; d marks the D form. Peptide text beside a SMILES is read from it. Phe(3,4-Cl2) = N[C@@H](Cc1ccc(Cl)c(Cl)c1)C(=O)O; Phe(4-Cl) = N[C@@H](Cc1ccc(Cl)cc1)C(=O)O; pT = C[C@@H](OP(=O)(O)O)[C@H](N)C(=O)O
Tests used:
[1] = test system: HeLa; assay: Induction of apoptosis in human HeLa cells assessed as necrotic cells at 5 uM after 48 hrs by Annexin V-FITC/propidium iodide staining based flow cytometry (reference value: 0.5%); type: functional
[2] = test system: HeLa; assay: Induction of apoptosis in human HeLa cells assessed as late apoptotic cells at 5 uM after 48 hrs by Annexin V-FITC/propidium iodide staining based flow cytometry (reference value: 0%); type: functional
[3] = test system: HeLa; assay: Induction of apoptosis in human HeLa cells assessed as late apoptotic cells at 20 uM after 48 hrs by Annexin V-FITC/propidium iodide staining based flow cytometry (reference value: 0%); type: functional
[4] = test system: HeLa; assay: Induction of apoptosis in human HeLa cells assessed as late apoptotic cells at 10 uM after 48 hrs by Annexin V-FITC/propidium iodide staining based flow cytometry (reference value: 0%); type: functional
[5] = test system: HeLa; assay: Induction of apoptosis in human HeLa cells assessed as viable cells at 20 uM after 48 hrs by Annexin V-FITC/propidium iodide staining based flow cytometry (reference value: 39.5%); type: functional; conditions: read-out: Activity
[6] = test system: HeLa; assay: Induction of apoptosis in human HeLa cells assessed as early apoptotic cells at 10 uM after 48 hrs by Annexin V-FITC/propidium iodide staining based flow cytometry (reference value: 0%); type: functional
[7] = target: Serine/threonine-protein kinase PLK2 (Homo sapiens, UniProt Q9NYY3); assay: Inhibition of FITC-GPMQTSpTPKNG-OH binding to Plk2 PBD (unknown origin) after 30 mins by fluorescence polarization assay
Chain of Serine/threonine-protein kinase PLK2 (Q9NYY3 whole entry): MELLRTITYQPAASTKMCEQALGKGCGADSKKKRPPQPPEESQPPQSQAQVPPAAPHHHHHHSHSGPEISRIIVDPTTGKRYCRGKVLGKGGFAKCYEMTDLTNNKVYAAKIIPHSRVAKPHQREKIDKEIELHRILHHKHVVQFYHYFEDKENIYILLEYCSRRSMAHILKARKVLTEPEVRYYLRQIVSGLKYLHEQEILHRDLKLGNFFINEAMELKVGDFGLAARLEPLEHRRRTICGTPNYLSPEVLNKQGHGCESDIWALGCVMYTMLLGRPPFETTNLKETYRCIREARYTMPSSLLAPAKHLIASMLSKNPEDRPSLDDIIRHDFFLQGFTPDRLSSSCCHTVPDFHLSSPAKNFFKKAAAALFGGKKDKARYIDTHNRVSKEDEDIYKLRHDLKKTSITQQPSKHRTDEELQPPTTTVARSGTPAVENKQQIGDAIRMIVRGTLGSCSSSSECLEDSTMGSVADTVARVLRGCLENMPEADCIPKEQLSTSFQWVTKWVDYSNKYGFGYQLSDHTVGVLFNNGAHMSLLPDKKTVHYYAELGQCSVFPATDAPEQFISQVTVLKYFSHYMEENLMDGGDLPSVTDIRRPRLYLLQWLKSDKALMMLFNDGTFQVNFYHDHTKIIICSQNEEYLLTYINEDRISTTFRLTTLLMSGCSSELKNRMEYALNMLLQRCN

[8] = test system: HeLa; assay: Cell cycle arrest in human HeLa cells assessed as accumulation at G2/M phase at 5 to 20 uM after 48 hrs by propidium iodide staining based flow cytometry; type: functional
[9] = test system: HeLa; assay: Induction of apoptosis in human HeLa cells assessed as necrotic cells at 10 uM after 48 hrs by Annexin V-FITC/propidium iodide staining based flow cytometry (reference value: 0.5%); type: functional
[10] = test system: HeLa; assay: Induction of apoptosis in human HeLa cells assessed as early apoptotic cells at 20 uM after 48 hrs by Annexin V-FITC/propidium iodide staining based flow cytometry (reference value: 0%); type: functional
[11] = test system: HeLa; assay: Induction of apoptosis in human HeLa cells assessed as early apoptotic cells at 5 uM after 48 hrs by Annexin V-FITC/propidium iodide staining based flow cytometry (reference value: 0%); type: functional
[12] = test system: HeLa; assay: Induction of apoptosis in human HeLa cells assessed as viable cells at 5 uM after 48 hrs by Annexin V-FITC/propidium iodide staining based flow cytometry (reference value: 39.5%); type: functional; conditions: read-out: Activity
[13] = test system: HeLa; assay: Induction of apoptosis in human HeLa cells assessed as viable cells at 10 uM after 48 hrs by Annexin V-FITC/propidium iodide staining based flow cytometry (reference value: 39.5%); type: functional; conditions: read-out: Activity
[14] = target: Serine/threonine-protein kinase PLK3 (Homo sapiens, UniProt Q9H4B4); assay: Inhibition of FITC-GPLATSpTPKNG-OH binding to Plk3 PBD (unknown origin) after 30 mins by fluorescence polarization assay
Chain of Serine/threonine-protein kinase PLK3 (Q9H4B4 whole entry): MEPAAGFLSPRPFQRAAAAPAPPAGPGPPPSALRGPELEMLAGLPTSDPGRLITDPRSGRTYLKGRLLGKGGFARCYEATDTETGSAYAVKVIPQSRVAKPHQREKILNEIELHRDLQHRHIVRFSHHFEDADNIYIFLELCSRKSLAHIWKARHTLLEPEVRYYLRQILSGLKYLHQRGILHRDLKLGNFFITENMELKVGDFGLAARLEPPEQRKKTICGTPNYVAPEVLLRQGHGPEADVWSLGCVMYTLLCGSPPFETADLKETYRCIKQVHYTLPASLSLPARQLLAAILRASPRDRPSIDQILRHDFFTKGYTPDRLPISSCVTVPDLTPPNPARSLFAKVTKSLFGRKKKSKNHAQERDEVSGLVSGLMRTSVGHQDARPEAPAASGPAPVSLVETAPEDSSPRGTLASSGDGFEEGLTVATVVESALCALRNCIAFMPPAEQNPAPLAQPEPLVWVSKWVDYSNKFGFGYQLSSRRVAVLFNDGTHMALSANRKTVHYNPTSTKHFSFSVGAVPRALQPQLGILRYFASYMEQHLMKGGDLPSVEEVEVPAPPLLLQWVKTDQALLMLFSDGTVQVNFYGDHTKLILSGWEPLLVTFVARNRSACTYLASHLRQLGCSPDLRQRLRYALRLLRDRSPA

[15] = test system: HeLa; assay: Induction of apoptosis in human HeLa cells assessed as necrotic cells at 20 uM after 48 hrs by Annexin V-FITC/propidium iodide staining based flow cytometry (reference value: 0.5%); type: functional
[16] = test system: HeLa; assay: Cell cycle arrest in human HeLa cells assessed as decrease in S phase at 5 to 20 uM after 48 hrs by propidium iodide staining based flow cytometry; type: functional
[17] = test system: HeLa; assay: Cell cycle arrest in human HeLa cells assessed as decrease in G2/M phase at 20 uM after 12 hrs by propidium iodide staining based flow cytometry relative to control; type: functional
[18] = test system: HeLa; assay: Cell cycle arrest in human HeLa cells assessed as decrease in G2/M phase at 20 uM after 24 hrs by propidium iodide staining based flow cytometry relative to control; type: functional; set-up: scale not given: the % may be the effect or the level left
[19] = test system: HeLa; assay: Induction of morphological changes in human HeLa cells assessed as nuclei fragmentation at 5 to 20 uM after 48 hrs by Hoechst 33258 staining based fluorescence microscopy; type: functional, cell-based
[20] = test system: HeLa; assay: Induction of apoptosis in human HeLa cells after 48 hrs by Annexin V-FITC/propidium iodide staining based flow cytometry; type: functional, cell-based
[21] = test system: HeLa; assay: Induction of morphological changes in human HeLa cells at 5 to 20 uM after 48 hrs by Hoechst 33258 staining based fluorescence microscopy; type: functional, cell-based
[22] = test system: HeLa; assay: Induction of apoptosis in human HeLa cells assessed as caspase 3 cleavage after 48 hrs by Western blot analysis; type: functional, cell-based
[23] = test system: HeLa; assay: Cell cycle arrest in human HeLa cells assessed as decrease in G0/G1 phase at 5 to 20 uM after 48 hrs by propidium iodide staining based flow cytometry; type: functional
[24] = test system: HeLa; assay: Induction of apoptosis in human HeLa cells assessed as PARP cleavage after 48 hrs by Western blot analysis; type: functional, cell-based
[25] = Drug uptake in nucleus of human HeLa cells after 3 hrs by DAPI staining based confocal laser scanning microscopy; type: ADME, subcellular
[26] = test system: HeLa; assay: Decrease in CDK1 expression level in human HeLa cells after 48 hrs by Western blot analysis; type: functional, cell-based
[27] = test system: HeLa; assay: Induction of morphological changes in human HeLa cells assessed as chromatin condensation at 5 to 20 uM after 48 hrs by Hoechst 33258 staining based fluorescence microscopy; type: functional, cell-based
[28] = test system: HeLa; assay: Decrease in cyclin B1 expression level in human HeLa cells after 48 hrs by Western blot analysis; type: functional, cell-based
[29] = test system: HeLa; assay: Cell cycle arrest in human HeLa cells assessed as decrease in G2/M phase at 20 uM after 48 hrs by propidium iodide staining based flow cytometry relative to control; type: functional; set-up: scale not given: the % may be the effect or the level left

IC50 [14]	IC50 [7]	Structure (SMILES)	Activity [1]	Activity [2]	Activity [3]	Activity [4]	viability at 20 µM [5]	Activity [6]	Activity [8]	Activity [9]	Activity [10]	Activity [11]	viability at 5 µM [12]	viability at 10 µM [13]	Activity [15]	further results
Not Active		CC[C@H](C)[C@H](NC(=O)[C@H](C)NC(=O)[C@@H](NC(=O)[C@H](CO)NC(=O)[C@H](Cc1cnc[nH]1)NC(=O)[C@H](CC(C)C)NC(=O)[C@@H]1CCCN1C(=O)[C@@H]1CCCN1C(=O)[C@H](CC(=O)O)NC(=O)[C@H](Cc1ccccc1)NC(C)=O)[C@@H](C)OP(=O)(O)O)C(=O)N[C@@H](Cc1ccc(O)cc1)C(=O)N[C@@H](C)C(=O)N[C@@H](CC(N)=O)C(N)=O (Ac-FDPPLHS[pT]AIYAN-NH2)	0%	0%	0%	0%	100%	0%	inactive	0%	0%	0%	100%	100%	0%	IC50 ([7]; read-out: IC50): 13.4 µM
Not Active	Not Active	CC[C@H](C)[C@H](NC(=O)[C@H](C)NC(=O)[C@@H](NC(=O)[C@H](CO)NC(=O)[C@H](Cc1cnc[nH]1)NC(=O)[C@H](CC(C)C)NC(=O)[C@@H]1CCCN1C(=O)[C@@H]1CCCN1C(=O)[C@H](CC(=O)O)NC(=O)[C@H](Cc1ccc(OC)cc1)NC(=O)[C@@H](NC(=O)[C@H](CCC(N)=O)NC(C)=O)[C@@H](C)O)[C@@H](C)OP(=O)(O)O)C(=O)N[C@@H](Cc1ccc(O)cc1)C(=O)N[C@@H](C)C(=O)N[C@@H](CC(N)=O)C(N)=O (Ac-QTY(Me)DPPLHS[pT]AIYAN-NH2)														
	Not Active	CC[C@H](C)[C@H](NC(=O)[C@H](C)NC(=O)[C@@H](NC(=O)[C@H](CO)NC(=O)[C@H](Cc1cnc[nH]1)NC(=O)[C@H](CC(C)C)NC(=O)[C@@H]1CCCN1C(=O)[C@@H]1CCCN1C(=O)[C@H](CC(=O)O)NC(=O)[C@H](Cc1ccc(Cl)c(Cl)c1)NC(=O)[C@@H](NC(=O)[C@H](CCC(N)=O)NC(C)=O)[C@@H](C)O)[C@@H](C)OP(=O)(O)O)C(=O)N[C@@H](Cc1ccc(O)cc1)C(=O)N[C@@H](C)C(=O)N[C@@H](CC(N)=O)C(N)=O (Ac-QT[Phe(3,4-Cl2)]DPPLHS[pT]AIYAN-NH2)	0.2%	1.6%	2.1%	5.9%	50.8%	25.2%	24.37 - 67.66%	0.2%	46.9%	14.6%	83.7%	68.6%	0.1%	Activity [16]: Active; Activity [17]: inactive; Activity [18]: 40%; Activity [19]: Active; Activity [20]: Dose-dependent effect; Activity [21]: Active; Activity [22]: Active; Activity [23]: Active; Activity [24]: Active; Drug uptake [25]: Active; Activity [26]: Dose-dependent effect; Activity [27]: Active; Activity [28]: Dose-dependent effect; Activity [29]: 71%
Not Active	Not Active	CC[C@H](C)[C@H](NC(=O)[C@H](C)NC(=O)[C@@H](NC(=O)[C@H](CO)NC(=O)[C@H](Cc1cnc[nH]1)NC(=O)[C@H](CC(C)C)NC(=O)[C@@H]1CCCN1C(=O)[C@@H]1CCCN1C(=O)[C@H](CC(=O)O)NC(=O)[C@H](Cc1ccc(Cl)cc1)NC(=O)[C@@H](NC(=O)[C@H](CCC(N)=O)NC(C)=O)[C@@H](C)O)[C@@H](C)OP(=O)(O)O)C(=O)N[C@@H](Cc1ccc(O)cc1)C(=O)N[C@@H](C)C(=O)N[C@@H](CC(N)=O)C(N)=O (Ac-QT[Phe(4-Cl)]DPPLHS[pT]AIYAN-NH2)														

Reference: ChEMBL document CHEMBL4118220, “Design, synthesis and biological evaluation of phosphopeptides as Polo-like kinase 1 Polo-box domain inhibitors” (Bioorg Med Chem, 2018)
